From patent publication US11426397B2, “Piperidinyl- and piperazinyl-substituted heteroaromatic carboxamides as modulators of GPR6” (TAKEDA PHARMACEUTICAL COMPANY LIMITED, priority 2017, dated 2022)

Target: T1, GPR6 receptor expressed in CHO-K1 cells (Homo sapiens, UniProt P46095)
T1 construct: expressed in transfected cells
Experiment: In vitro inhibition of cAMP (EC50), cell-based HTRF cAMP assay
Conditions: inhibition of constitutive cAMP activity of GPR6 in CHO-K1 cells
Outline: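 Tetracycline-inducible CHO-K1 line, GPR6 expression induced 20 h with 2 μg/mL doxycycline. Compounds incubated 45 min at 37 °C in Ringer's buffer (pH 7.4) with 0.5% fatty acid free BSA and 300 μM IBMX. Constitutive cAMP read by Lance HTRF; EC50 from four-parameter logistic fit.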

T1 sequence (P46095 whole entry): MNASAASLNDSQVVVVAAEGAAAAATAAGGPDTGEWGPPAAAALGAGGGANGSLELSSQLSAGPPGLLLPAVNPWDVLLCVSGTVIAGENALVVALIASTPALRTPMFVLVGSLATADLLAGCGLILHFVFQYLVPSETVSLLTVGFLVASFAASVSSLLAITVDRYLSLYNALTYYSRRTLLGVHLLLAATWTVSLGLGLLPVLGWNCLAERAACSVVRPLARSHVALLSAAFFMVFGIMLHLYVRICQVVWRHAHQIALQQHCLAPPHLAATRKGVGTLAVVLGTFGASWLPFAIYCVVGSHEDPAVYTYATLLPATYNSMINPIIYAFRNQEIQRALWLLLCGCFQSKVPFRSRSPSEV

Row | Compound | pEC50, in vitro inhibition of cAMP
1 | CCn1c(C)cc(C)c(C(=O)Nc2cc(C#N)ccc2N2CCC(Oc3ccc(F)cc3F)CC2)c1=O [Example 202] | 6.3
2 | COc1ncccc1C(=O)Nc1cc(S(C)(=O)=O)ccc1N1CCN(C(=O)c2ccc(F)cc2C)CC1 [Example 95, N-(2-(4-(4-fluoro-2-methylbenzoyl)piperazin-1-yl)-5-(methylsulfonyl)phenyl)-2-methoxynicotinamide] | 6.2
3 | COc1ncccc1C(=O)Nc1cc(C#N)cnc1N1CCC(Oc2ccc(F)cc2F)CC1 [Example 63, N-(5-cyano-2-(4-(2,4-difluorophenoxy)piperidin-1-yl)pyridin-3-yl)-2-methoxynicotinamide] | 7.1
4 | COc1cc(CN2CCN(c3ncc(C#N)cc3NC(=O)c3cn(C)nc3OC)CC2)ccc1F [Example 158, N-(5-cyano-2-(4-(4-fluoro-3-methoxybenzyl)piperazin-1-yl)pyridin-3-yl)-3-methoxy-1-methyl-1H-pyrazole-4-carboxamide] | 6.3
5 | Cn1cccc(C(=O)Nc2cc(C#N)ccc2N2CCC(Oc3ccc(F)c(F)c3)CC2)c1=O [Example 16] | 6.6
6 | COc1nn(C)cc1C(=O)Nc1cc(C#N)cnc1N1CCN(Cc2ccc(F)c(C#N)c2)CC1 [Example 154, N-(5-cyano-2-(4-(3-cyano-4-fluorobenzyl)piperazin-1-yl)pyridin-3-yl)-3-methoxy-1-methyl-1H-pyrazole-4-carbonamide] | 6.5
7 | Cc1ccc2ncc(C(=O)Nc3cc(C#N)ccc3N3CCC(Oc4ccc(F)cc4F)CC3)c(=O)n2c1 [Example 201] | 6.8
8 | Cc1cnc(C(=O)Nc2cc(C#N)ccc2N2CCC(Oc3ccc(F)cc3F)CC2)cn1 [Example 123, N-(5-cyano-2-(4-(2,4-difluorophenoxy)piperidin-1-yl)phenyl)-5-methylpyrazine-2-carboxamide] | 6.5
9 | COc1cnc(C(=O)Nc2cnc(C)cc2N2CCC(Oc3ccc(F)cc3F)CC2)cn1 [Example 142, N-(4-(4-(2,4-difluorophenoxy)piperidin-1-yl)-6-methylpyridin-3-yl)-5-methoxypyrazine-2-carboxamide] | 6.2
10 | COc1ncccc1C(=O)Nc1cc(C#N)ccc1N1CCC(C(OC)c2ccc(F)cc2)CC1 (stereo not shown) [Example 96, N-(5-cyano-2-(4-((4-fluorophenyl)(methoxy)methyl)piperidin-1-yl)phenyl)-2-methoxynicotinamide] | 6.5
11 | COc1ncccc1C(=O)Nc1cc(C#N)ccc1N1CCN(C(=O)c2ccc(F)cc2)CC1 [Example 286, N-(5-cyano-2-(4-(4-fluorobenzoyl)piperazin-1-yl)phenyl)-2-methoxynicotinamide] | 6.7
12 | CCCCn1cccc(C(=O)Nc2cc(C#N)ccc2N2CCC(Oc3ccc(F)cc3F)CC2)c1=O [Example 179, 1-butyl-N-(5-cyano-2-(4-(2,4-difluorophenoxy)piperidin-1-yl)phenyl)-2-oxo-1,2-dihydropyridine-3-carboxamide] | 6.2
13 | COc1c(C(=O)Nc2cc(C#N)ccc2N2CCC(Oc3ccc(F)cc3F)CC2)nnn1Cc1ccccc1 [Example 220, 1-benzyl-N-(5-cyano-2-(4-(2,4-difluorophenoxy)piperidin-1-yl)phenyl)-5-methoxy-1H-1,2,3-triazole-4-carboxamide] | 5.8
14 | Cn1cccc(C(=O)Nc2cc(C#N)ccc2N2CCC(C(F)c3cc(F)ccc3F)CC2)c1=O (stereo not shown) [Example 87] | 7.2
15 | Cn1cccc(C(=O)Nc2cc(S(=O)(=O)N3CCOCC3)cnc2N2CCC(Oc3ccc(F)cc3F)CC2)c1=O [Example 279, N-(2-(4-(2,4-difluorophenoxy)piperidin-1-yl)-5-(morpholinosulfonyl)pyridin-3-yl)-1-methyl-2-oxo-1,2-dihydropyridine-3-carboxamide] | 7.0
16 | COc1nn(C)cc1C(=O)Nc1cc(C#N)cnc1N1CCC(Oc2ccc(F)cc2F)CC1 [Example 60, N-(5-cyano-2-(4-(2,4-difluorophenoxy)piperidin-1-yl)pyridin-3-yl)-3-methoxy-1-methyl-1H-pyrazole-4-carboxamide] | 7.3
17 | N#Cc1ccc(N2CCC(Oc3ccc(F)cc3F)CC2)c(NC(=O)c2ncc(F)cc2F)c1 [Example 49, N-(5-cyano-2-(4-(2,4-difluorophenoxy)piperidin-1-yl)phenyl)-3,5-difluoropicolinamide] | 6.5

Other lines, results leading:

Row | pEC50, in vitro inhibition of cAMP | Compound
18 | 6.4 | Cn1c2c(cc(C(=O)Nc3cc(C#N)ccc3N3CCC(Oc4ccc(F)cc4F)CC3)c1=O)CCCC2 [Example 185]
19 | 6.5 | N#Cc1ccc(N2CCC(Oc3ccc(F)cc3F)CC2)c(NC(=O)c2ccccc2O)c1 [Example 275, N-(5-cyano-2-(4-(2,4-difluorophenoxy)piperidin-1-yl)phenyl)-2-hydroxybenzamide]
20 | 6.3 | COc1ncccc1C(=O)Nc1cc(C#N)ccc1N1CCN(C(=O)c2ccc(F)cc2F)CC1 [Example 93, N-(5-cyano-2-(4-(2,4-difluorobenzoyl)piperazin-1-yl)phenyl)-2-methoxynicotinamide]
21 | 6.5 | COc1ncccc1C(=O)Nc1cc(C#N)ccc1N1CCN(Cc2cccc(F)c2F)CC1 [Example 243, N-(5-cyano-2-(4-(2,3-difluorobenzyl)piperazin-1-yl)phenyl)-2-methoxynicotinamide]
22 | 6.4 | CC(C)n1cccc(C(=O)Nc2cc(C#N)ccc2N2CCC(Oc3ccc(F)cc3F)CC2)c1=O [Example 181, N-(5-cyano-2-(4-(2,4-difluorophenoxy)piperidin-1-yl)phenyl)-1-isopropyl-2-oxo-1,2-dihydropyridine-3-carboxamide]
23 | 7.1 | Cc1cncc(C(=O)Nc2cc(C#N)ccc2N2CCC(Oc3ccc(F)cc3F)CC2)n1 [Example 130, N-(5-cyano-2-(4-(2,4-difluorophenoxy)piperidin-1-yl)phenyl)-6-methylpyrazine-2-carboxamide]
24 | 6.9 | Cc1ccc(C(=O)Nc2cc(C#N)ccc2N2CCC(Oc3ccc(F)cc3F)CC2)nc1 [Example 124, N-(5-cyano-2-(4-(2,4-difluorophenoxy)piperidin-1-yl)phenyl)-5-methylpicolinamide]
25 | 7.0 | COc1cccc(C(=O)Nc2cc(C#N)ccc2N2CCC(Oc3ccc(F)cc3F)CC2)n1 [Example 175, N-(5-cyano-2-(4-(2,4-difluorophenoxy)piperidin-1-yl)phenyl)-6-methoxypicolinamide]
26 | 5.0 | COc1cccc(OC)c1C(=O)Nc1cc(C#N)ccc1N1CCC(Oc2ccc(F)cc2F)CC1 [Example 238, N-(5-cyano-2-(4-(2,4-difluorophenoxy)piperidin-1-yl)phenyl)-2,6-dimethoxybenzamide]
27 | <4.5 | COc1ccc(Cl)c(OC)c1C(=O)Nc1cc(C#N)ccc1N1CCC(Oc2ccc(F)cc2F)CC1 [Example 212, 3-chloro-N-(5-cyano-2-(4-(2,4-difluorophenoxy)piperidin-1-yl)phenyl)-2,6-dimethoxybenzamide]
28 | <5.7 | Cc1ccc(NC(=O)c2cnn(C)c2O)c(N2CCN(Cc3ccc(F)cc3)CC2)n1 [Example 104]
29 | 7.1 | COc1ccc(C(=O)Nc2cc(C#N)ccc2N2CCC(Oc3ccc(F)cc3F)CC2)c(OC)c1 [Example 235, N-(5-cyano-2-(4-(2,4-difluorophenoxy)piperidin-1-yl)phenyl)-2,4-dimethoxybenzamide]
30 | 6.3 | Cn1cccc(C(=O)Nc2cc(C#N)ccc2N2CCC(Oc3c(F)cccc3F)CC2)c1=O [Example 13, N-(5-cyano-2-(4-(2,6-difluorophenoxy)piperidin-1-yl)phenyl)-1-methyl-2-oxo-1,2-dihydropyridine-3-carboxamide]
31 | 6.3 | Cn1cccc(C(=O)Nc2cc(C#N)ccc2N2CCC(C(F)(F)c3cc(Cl)ccc3F)CC2)c1=O [Example 89, N-(2-(4-((5-chloro-2-fluorophenyl)difluoromethyl)piperidin-1-yl)-5-cyanophenyl)-1-methyl-2-oxo-1,2-dihydropyridine-3-carboxamide]
32 | 7.0 | Cc1onc(C(=O)Nc2cc(C#N)ccc2N2CCC(Oc3ccc(F)cc3F)CC2)c1C [Example 131, N-(5-cyano-2-(4-(2,4-difluorophenoxy)piperidin-1-yl)phenyl)-4,5-dimethylisoxazole-3-carboxamide]
33 | 6.7 | COc1ncccc1C(=O)Nc1cc(C(=O)N(C)C)ccc1N1CCC(Oc2ccc(F)cc2F)CC1 [Example 265]
34 | 7.4 | Cc1cccc(C(=O)Nc2cc(C#N)cnc2N2CCC(Oc3ccc(F)cc3F)CC2)n1 [Example 54, N-(5-cyano-2-(4-(2,4-difluorophenoxy)piperidin-1-yl)pyridin-3-yl)-6-methylpicolinamide]
35 | 6.2 | COc1ncccc1C(=O)Nc1cnc(C)cc1N1CCC(Oc2ccc(C#N)cc2F)CC1 [Example 40, N-(4-(4-(4-cyano-2-fluorophenoxy)piperidin-1-yl)-6-methylpyridin-3-yl)-2-methoxynicotinamide]
36 | 6.3 | COc1cn(-c2ccccc2)nc1C(=O)Nc1cc(C#N)ccc1N1CCC(Oc2ccc(F)cc2F)CC1 [Example 219, N-(5-cyano-2-(4-(2,4-difluorophenoxy)piperidin-1-yl)phenyl)-4-methoxy-1-phenyl-1H-pyrazole-3-carboxamide]
37 | 4.9 | CN(C)C(=O)Cn1cccc(C(=O)Nc2cc(C#N)ccc2N2CCC(Oc3ccc(F)cc3F)CC2)c1=O [Example 204, N-(5-cyano-2-(4-(2,4-difluorophenoxy)piperidin-1-yl)phenyl)-1-(2-(dimethylamino)-2-oxoethyl)-2-oxo-1,2-dihydropyridine-3-carboxamide]
